Data taken from patent publication US9475802B2, “Inhibitors of viral replication, their process of preparation and their therapeutical uses” (LABORATOIRE BIODIM, priority 2012, dated 2016).

Test system: NL4-3 strain of HIV-1
Assay: Inhibition of HIV replication: cyto-protection in Cell-Titer-Glo viability assay, MT4 cells infected with NL4-3 virus
Type: cell-based
Conditions: Human immunodeficiency virus 1, NL43, 120 h, concentration leading to 50% of cyto-protection, 5 days incubation, CellTiter-Glo luminescence
Experimental: The antiviral activity, particularly against HIV, of compounds according to the invention is evaluated by the protocol described below.
Preparation of Virus Stock of the NL4-3 Strain of HIV-1 (Adachi et al, J Virol, 1986, 59(2):284-91).
The virus was prepared as described in Lopez et al (Lopez et al, Proc Natl Acad Sci USA., 2006, 103(40):14947-52, by transfecting 2×10^6 293 T cells (CRL-1573, ATCC) with following modifications: 6 μg of NL4-3 proviral DNA molecular clone were mixed with Fugene 6 transfection reagent from Roche, and used according to manufacturer's instructions. Forty eight hours later, transfected cell supernatants were harvested, filtered through 0.45-μm-pore-size filters, quantified for HIV-1 p24 antigen by using a Innotest HIV antigen mAb assay (Ingen) according to manufacturer's instructions, and used in infection experiments.
Serial dilutions of compounds to be tested were prepared in complete RPMI medium from 10 mM DMSO stock solutions, and distributed in a volume of 20 μL in 96 well Falcon 353072 Microtest™ tissue culture plate, in order to get 0.5% DMSO final concentration in each well, after the addition of infected cells. Control wells contained also 0.5% DMSO final concentration but no compound.
MT^4 cells (from the NIH AIDS Research and Reference Reagent Program) in RPMI complete medium were counted (10×10^6 cells per well in Falcon 353047 Multiwell™ 24 well) and infected for 2 hours at 37°, at a multiplicity of infection (moi) of 0.0001-0.00001. Cells were then centrifuged 3 min at 3000 rpm, and washed two times in 1 ml PBS to remove viruses that have not entered in cells. Infected cells were resuspended in complete RPMI at 1.25×10^6 cells/ml, and 80 μl of infected cells were distributed in each well containing compounds to be tested or control wells. The plates were then incubated at 37° for 5 days.
Assay Used to Measure the Inhibition of HIV Replication by the Compounds (According to (According to Gregg S. Jones et al., Antimicrobial Agents and Chemotherapy, 2009, 53 (3): 1194-1203).
After 5 days of incubation, 50 μl of CellTiter-Glo reagent (Promega Biosciences, Inc., Madison Wis., USA) were added to each well. Cell lysis was carried out at room temperature during 10 min, 150 μl of lysates were transferred in Packard Optiplate 96 well, and luminescence was read on a Fluoroskan (Thermo Scientific).
The EC50, or effective concentration 50, is the concentration of compound leading to 50% of cyto-protection in a Cell-Titer-Glo® viability assay based on MT^4 cells infected with NL4-3 virus (table 1).

SMILES | EC50 [µM]
CC(C)(C)OC(C(=O)O)c1c(C(F)(F)F)ccc(-c2ccc(=O)n(CC3CC3)c2)c1-c1ccc2c(c1)CCCO2 (stereo not drawn) [Example 27, 2-(tert-butoxy)-2-{3-[1-(cyclopropylmethyl)-6-oxo-1,6-dihydropyridin-3-yl]-2-(3,4-dihydro-2H-1-benzopyran-6-yl)-6-(trifluoromethyl)phenyl}acetic acid] | 0.079
CCCc1cc(-c2ccc(C(F)(F)F)c(C(OC(C)(C)C)C(=O)O)c2-c2ccc3c(c2)CCCO3)ccn1 (stereo not drawn) [Example 28, 2-(tert-butoxy)-2-[2-(3,4-dihydro-2H-1-benzopyran-6-yl)-3-(2-propylpyridin-4-yl)-6-(trifluoromethyl)phenyl]acetic acid] | 0.078
CCCc1cccc(-c2ccc(C(F)(F)F)c(C(OC(C)(C)C)C(=O)O)c2-c2ccc3c(c2)CCCO3)c1 (stereo not drawn) [Example 29, 2-(tert-butoxy)-2-[2-(3,4-dihydro-2H-1-benzopyran-6-yl)-3-(3-propylphenyl)-6-(trifluoromethyl)phenyl]acetic acid] | 0.43
CC(C)(C)OC(C(=O)O)c1c(C(F)(F)F)ccc(-c2ccc(=O)n(CC3CCC3)c2)c1-c1ccc2c(c1)CCCO2 (stereo not drawn) [Example 30, 2-(tert-butoxy)-2-{3-[1-(cyclobutylmethyl)-6-oxo-1,6-dihydropyridin-3-yl]-2-(3,4-dihydro-2H-1-benzopyran-6-yl)-6-(trifluoromethyl)phenyl}acetic acid] | 0.067
CC(C)(C)OC(C(=O)O)c1c(C(F)(F)F)ccc(-c2ccc(=O)n(CCC3CC3)c2)c1-c1ccc2c(c1)CCCO2 (stereo not drawn) [Example 31, 2-(tert-butoxy)-2-{3-[1-(2-cyclopropylethyl)-6-oxo-1,6-dihydropyridin-3-yl]-2-(3,4-dihydro-2H-1-benzopyran-6-yl)-6-(trifluoromethyl)phenyl}acetic acid] | 0.26
CC(C)Cn1cc(-c2ccc(C(F)(F)F)c(C(OC(C)(C)C)C(=O)O)c2-c2ccc3c(c2)CCCO3)ccc1=O (stereo not drawn) [Example 32, 2-(tert-butoxy)-2-[2-(3,4-dihydro-2H-1-benzopyran-6-yl)-3-[1-(2-methylpropyl)-6-oxo-1,6-dihydropyridin-3-yl]-6-(trifluoromethyl)phenyl]acetic acid] | 0.085
Cc1ccc(-c2ccc(=O)n(CC3CCC3)c2)c(-c2ccc3c(c2C)CCCO3)c1C(OC(C)(C)C)C(=O)O (stereo not drawn) [Example 37, 2-(tert-butoxy)-2-[3-(1-cyclobutylmethyl-6-oxo-1,6-dihydro-pyridin-3-yl)-6-methyl-2-[5-methyl-(3,4-dihydro-2H-1-benzopyran-6-yl)]phenyl]acetic acid] | 0.31
CC(C)(C)OC(C(=O)O)c1c(C(F)(F)F)ccc(-c2cccn(CC3CCC3)c2=O)c1-c1ccc2c(c1)CCCO2 (stereo not drawn) [Example 38, 2-(tert-butoxy)-2-{3-[1-(cyclobutylmethyl)-2-oxo-1,2-dihydropyridin-3-yl]-2-(3,4-dihydro-2H-1-benzopyran-6-yl)-6-(trifluoromethyl)phenyl}acetic acid] | 0.13
CC(C)(C)OC(C(=O)O)c1c(C(F)(F)F)ccc(-c2ccc(=O)n(C3CC3)c2)c1-c1ccc2c(c1)CCCO2 (stereo not drawn) [Example 39, 2-(tert-butoxy)-2-[3-(1-cyclopropyl-6-oxo-1,6-dihydropyridin-3-yl)-2-(3,4-dihydro-2H-1-benzopyran-6-yl)-6-(trifluoromethyl)phenyl]acetic acid] | 0.33
